Oligonucleotides are given in HELM: sugar(base)linkage, 5' to 3'; d 2'-deoxyribose, r ribose, m 2'-O-methylribose, p phosphate. ss, as = sense and antisense strand

The record followed here is the OligoGym collection.
Note: test concentration or dose not given here.

The data set addresses UBE2N. The data set is described as follows: reporter assay of Huesken 2005. To be noted: siRNA. In general terms: Reporter assays use an easily measured gene product as a stand-in for the process of interest.
For “RNA1{r(G)p.r(A)p.r(U)p.r(C)p.r(C)p.r(A)p.r(U)p.r(U)p.r(A)p.r(G)p.r(C)p.r(A)p.r(A)p.r(A)p.r(U)p.r(G)p.r(A)p.r(U)p.r(G)p.d(T)p.d(T)}|RNA2{r(C)p.r(A)p.r(U)p.r(C)p.r(A)p.r(U)p.r(U)p.r(U)p.r(G)p.r(C)p.r(U)p.r(A)p.r(A)p.r(U)p.r(G)p.r(G)p.r(A)p.r(U)p.r(C)p.d(A)p.d(T)}$$$RNA1{StrandType:ss}|RNA2{StrandType:as}$”, the normalised inhibition (eCFP-eYFP dual reporter) was 61.3%.

The substance “RNA1{r(G)p.r(C)p.r(A)p.r(A)p.r(A)p.r(U)p.r(G)p.r(A)p.r(U)p.r(G)p.r(U)p.r(A)p.r(G)p.r(C)p.r(G)p.r(G)p.r(A)p.r(G)p.r(C)p.d(T)p.d(T)}|RNA2{r(G)p.r(C)p.r(U)p.r(C)p.r(C)p.r(G)p.r(C)p.r(U)p.r(A)p.r(C)p.r(A)p.r(U)p.r(C)p.r(A)p.r(U)p.r(U)p.r(U)p.r(G)p.r(C)p.d(T)p.d(A)}$$$RNA1{StrandType:ss}|RNA2{StrandType:as}$” gave a normalised inhibition (eCFP-eYFP dual reporter) of 49.8%.

On to “RNA1{r(G)p.r(C)p.r(A)p.r(G)p.r(A)p.r(U)p.r(C)p.r(C)p.r(G)p.r(C)p.r(A)p.r(C)p.r(A)p.r(G)p.r(U)p.r(U)p.r(C)p.r(U)p.r(G)p.d(T)p.d(T)}|RNA2{r(C)p.r(A)p.r(G)p.r(A)p.r(A)p.r(C)p.r(U)p.r(G)p.r(U)p.r(G)p.r(C)p.r(G)p.r(G)p.r(A)p.r(U)p.r(C)p.r(U)p.r(G)p.r(C)p.d(A)p.d(G)}$$$RNA1{StrandType:ss}|RNA2{StrandType:as}$”, for which the normalised inhibition (eCFP-eYFP dual reporter) is 86.3%.

Take “RNA1{r(G)p.r(C)p.r(C)p.r(G)p.r(A)p.r(A)p.r(C)p.r(C)p.r(A)p.r(G)p.r(A)p.r(U)p.r(G)p.r(A)p.r(G)p.r(A)p.r(G)p.r(C)p.r(A)p.d(T)p.d(T)}|RNA2{r(U)p.r(G)p.r(C)p.r(U)p.r(C)p.r(U)p.r(C)p.r(A)p.r(U)p.r(C)p.r(U)p.r(G)p.r(G)p.r(U)p.r(U)p.r(C)p.r(G)p.r(G)p.r(C)p.d(T)p.d(T)}$$$RNA1{StrandType:ss}|RNA2{StrandType:as}$”: the normalised inhibition (eCFP-eYFP dual reporter) was 82.6%.

With “RNA1{r(G)p.r(G)p.r(A)p.r(C)p.r(U)p.r(U)p.r(U)p.r(U)p.r(A)p.r(A)p.r(A)p.r(C)p.r(U)p.r(U)p.r(G)p.r(A)p.r(A)p.r(C)p.r(U)p.d(T)p.d(T)}|RNA2{r(A)p.r(G)p.r(U)p.r(U)p.r(C)p.r(A)p.r(A)p.r(G)p.r(U)p.r(U)p.r(U)p.r(A)p.r(A)p.r(A)p.r(A)p.r(G)p.r(U)p.r(C)p.r(C)p.d(C)p.d(T)}$$$RNA1{StrandType:ss}|RNA2{StrandType:as}$”, the normalised inhibition (eCFP-eYFP dual reporter) is 87.2%.

Consider “RNA1{r(G)p.r(G)p.r(U)p.r(C)p.r(C)p.r(C)p.r(C)p.r(A)p.r(G)p.r(C)p.r(A)p.r(C)p.r(U)p.r(G)p.r(C)p.r(A)p.r(G)p.r(A)p.r(U)p.d(T)p.d(T)}|RNA2{r(A)p.r(U)p.r(C)p.r(U)p.r(G)p.r(C)p.r(A)p.r(G)p.r(U)p.r(G)p.r(C)p.r(U)p.r(G)p.r(G)p.r(G)p.r(G)p.r(A)p.r(C)p.r(C)p.d(A)p.d(C)}$$$RNA1{StrandType:ss}|RNA2{StrandType:as}$”, for which the normalised inhibition (eCFP-eYFP dual reporter) amounted to 62.2%.

As to “RNA1{r(G)p.r(U)p.r(A)p.r(G)p.r(A)p.r(C)p.r(A)p.r(A)p.r(G)p.r(U)p.r(U)p.r(G)p.r(G)p.r(G)p.r(A)p.r(A)p.r(G)p.r(A)p.r(A)p.d(T)p.d(T)}|RNA2{r(U)p.r(U)p.r(C)p.r(U)p.r(U)p.r(C)p.r(C)p.r(C)p.r(A)p.r(A)p.r(C)p.r(U)p.r(U)p.r(G)p.r(U)p.r(C)p.r(U)p.r(A)p.r(C)p.d(A)p.d(T)}$$$RNA1{StrandType:ss}|RNA2{StrandType:as}$”, the normalised inhibition (eCFP-eYFP dual reporter) was determined as 94%.

Substance “RNA1{r(G)p.r(U)p.r(G)p.r(G)p.r(U)p.r(C)p.r(A)p.r(U)p.r(U)p.r(G)p.r(C)p.r(U)p.r(G)p.r(G)p.r(C)p.r(C)p.r(C)p.r(U)p.r(C)p.d(T)p.d(T)}|RNA2{r(G)p.r(A)p.r(G)p.r(G)p.r(G)p.r(C)p.r(C)p.r(A)p.r(G)p.r(C)p.r(A)p.r(A)p.r(U)p.r(G)p.r(A)p.r(C)p.r(C)p.r(A)p.r(C)p.d(A)p.d(T)}$$$RNA1{StrandType:ss}|RNA2{StrandType:as}$” gave a normalised inhibition (eCFP-eYFP dual reporter) of 54.1%.

Consider “RNA1{r(G)p.r(U)p.r(G)p.r(G)p.r(U)p.r(C)p.r(C)p.r(C)p.r(C)p.r(A)p.r(G)p.r(C)p.r(A)p.r(C)p.r(U)p.r(G)p.r(C)p.r(A)p.r(G)p.d(T)p.d(T)}|RNA2{r(C)p.r(U)p.r(G)p.r(C)p.r(A)p.r(G)p.r(U)p.r(G)p.r(C)p.r(U)p.r(G)p.r(G)p.r(G)p.r(G)p.r(A)p.r(C)p.r(C)p.r(A)p.r(C)p.d(T)p.d(T)}$$$RNA1{StrandType:ss}|RNA2{StrandType:as}$”, for which the normalised inhibition (eCFP-eYFP dual reporter) stood at 59.4%.

On to “RNA1{r(G)p.r(U)p.r(U)p.r(C)p.r(C)p.r(U)p.r(G)p.r(G)p.r(C)p.r(A)p.r(U)p.r(C)p.r(A)p.r(A)p.r(A)p.r(G)p.r(C)p.r(C)p.r(G)p.d(T)p.d(T)}|RNA2{r(C)p.r(G)p.r(G)p.r(C)p.r(U)p.r(U)p.r(U)p.r(G)p.r(A)p.r(U)p.r(G)p.r(C)p.r(C)p.r(A)p.r(G)p.r(G)p.r(A)p.r(A)p.r(C)p.d(T)p.d(G)}$$$RNA1{StrandType:ss}|RNA2{StrandType:as}$”, for which the normalised inhibition (eCFP-eYFP dual reporter) amounted to 78.2%.

The substance “RNA1{r(U)p.r(A)p.r(G)p.r(A)p.r(G)p.r(C)p.r(A)p.r(U)p.r(G)p.r(G)p.r(A)p.r(C)p.r(U)p.r(A)p.r(G)p.r(G)p.r(C)p.r(U)p.r(A)p.d(T)p.d(T)}|RNA2{r(U)p.r(A)p.r(G)p.r(C)p.r(C)p.r(U)p.r(A)p.r(G)p.r(U)p.r(C)p.r(C)p.r(A)p.r(U)p.r(G)p.r(C)p.r(U)p.r(C)p.r(U)p.r(A)p.d(G)p.d(C)}$$$RNA1{StrandType:ss}|RNA2{StrandType:as}$” returned a normalised inhibition (eCFP-eYFP dual reporter) of 73.8%.

“RNA1{r(U)p.r(A)p.r(G)p.r(A)p.r(U)p.r(A)p.r(U)p.r(U)p.r(U)p.r(U)p.r(G)p.r(A)p.r(A)p.r(A)p.r(G)p.r(A)p.r(U)p.r(A)p.r(A)p.d(T)p.d(T)}|RNA2{r(U)p.r(U)p.r(A)p.r(U)p.r(C)p.r(U)p.r(U)p.r(U)p.r(C)p.r(A)p.r(A)p.r(A)p.r(A)p.r(U)p.r(A)p.r(U)p.r(C)p.r(U)p.r(A)p.d(G)p.d(A)}$$$RNA1{StrandType:ss}|RNA2{StrandType:as}$”: the normalised inhibition (eCFP-eYFP dual reporter) turned out to be 80.6%.

With “RNA1{r(U)p.r(A)p.r(G)p.r(C)p.r(G)p.r(G)p.r(A)p.r(G)p.r(C)p.r(A)p.r(G)p.r(U)p.r(G)p.r(G)p.r(A)p.r(A)p.r(G)p.r(A)p.r(C)p.d(T)p.d(T)}|RNA2{r(G)p.r(U)p.r(C)p.r(U)p.r(U)p.r(C)p.r(C)p.r(A)p.r(C)p.r(U)p.r(G)p.r(C)p.r(U)p.r(C)p.r(C)p.r(G)p.r(C)p.r(U)p.r(A)p.d(C)p.d(A)}$$$RNA1{StrandType:ss}|RNA2{StrandType:as}$”, the normalised inhibition (eCFP-eYFP dual reporter) stood at 40.2%.

For the substance “RNA1{r(U)p.r(A)p.r(U)p.r(U)p.r(C)p.r(C)p.r(U)p.r(U)p.r(C)p.r(C)p.r(A)p.r(G)p.r(A)p.r(A)p.r(G)p.r(A)p.r(A)p.r(U)p.r(A)p.d(T)p.d(T)}|RNA2{r(U)p.r(A)p.r(U)p.r(U)p.r(C)p.r(U)p.r(U)p.r(C)p.r(U)p.r(G)p.r(G)p.r(A)p.r(A)p.r(G)p.r(G)p.r(A)p.r(A)p.r(U)p.r(A)p.d(G)p.d(T)}$$$RNA1{StrandType:ss}|RNA2{StrandType:as}$”, the normalised inhibition (eCFP-eYFP dual reporter) was determined as 83%.

Take “RNA1{r(U)p.r(C)p.r(A)p.r(U)p.r(G)p.r(U)p.r(G)p.r(G)p.r(U)p.r(C)p.r(A)p.r(U)p.r(U)p.r(G)p.r(C)p.r(U)p.r(G)p.r(G)p.r(C)p.d(T)p.d(T)}|RNA2{r(G)p.r(C)p.r(C)p.r(A)p.r(G)p.r(C)p.r(A)p.r(A)p.r(U)p.r(G)p.r(A)p.r(C)p.r(C)p.r(A)p.r(C)p.r(A)p.r(U)p.r(G)p.r(A)p.d(A)p.d(A)}$$$RNA1{StrandType:ss}|RNA2{StrandType:as}$”: the normalised inhibition (eCFP-eYFP dual reporter) was 50.6%.

“RNA1{r(U)p.r(C)p.r(C)p.r(A)p.r(G)p.r(A)p.r(U)p.r(G)p.r(A)p.r(U)p.r(C)p.r(C)p.r(A)p.r(U)p.r(U)p.r(A)p.r(G)p.r(C)p.r(A)p.d(T)p.d(T)}|RNA2{r(U)p.r(G)p.r(C)p.r(U)p.r(A)p.r(A)p.r(U)p.r(G)p.r(G)p.r(A)p.r(U)p.r(C)p.r(A)p.r(U)p.r(C)p.r(U)p.r(G)p.r(G)p.r(A)p.d(T)p.d(T)}$$$RNA1{StrandType:ss}|RNA2{StrandType:as}$” returned a normalised inhibition (eCFP-eYFP dual reporter) of 85.9%.

In turn, “RNA1{r(U)p.r(C)p.r(C)p.r(C)p.r(A)p.r(A)p.r(U)p.r(C)p.r(C)p.r(A)p.r(G)p.r(A)p.r(U)p.r(G)p.r(A)p.r(U)p.r(C)p.r(C)p.r(A)p.d(T)p.d(T)}|RNA2{r(U)p.r(G)p.r(G)p.r(A)p.r(U)p.r(C)p.r(A)p.r(U)p.r(C)p.r(U)p.r(G)p.r(G)p.r(A)p.r(U)p.r(U)p.r(G)p.r(G)p.r(G)p.r(A)p.d(G)p.d(C)}$$$RNA1{StrandType:ss}|RNA2{StrandType:as}$” had a normalised inhibition (eCFP-eYFP dual reporter) of 78.4%.

As for “RNA1{r(U)p.r(C)p.r(C)p.r(G)p.r(C)p.r(A)p.r(C)p.r(A)p.r(G)p.r(U)p.r(U)p.r(C)p.r(U)p.r(G)p.r(C)p.r(U)p.r(A)p.r(U)p.r(C)p.d(T)p.d(T)}|RNA2{r(G)p.r(A)p.r(U)p.r(A)p.r(G)p.r(C)p.r(A)p.r(G)p.r(A)p.r(A)p.r(C)p.r(U)p.r(G)p.r(U)p.r(G)p.r(C)p.r(G)p.r(G)p.r(A)p.d(T)p.d(C)}$$$RNA1{StrandType:ss}|RNA2{StrandType:as}$”, the normalised inhibition (eCFP-eYFP dual reporter) turned out to be 63.5%.

Consider “RNA1{r(U)p.r(C)p.r(C)p.r(U)p.r(U)p.r(C)p.r(C)p.r(A)p.r(G)p.r(A)p.r(A)p.r(G)p.r(A)p.r(A)p.r(U)p.r(A)p.r(C)p.r(C)p.r(C)p.d(T)p.d(T)}|RNA2{r(G)p.r(G)p.r(G)p.r(U)p.r(A)p.r(U)p.r(U)p.r(C)p.r(U)p.r(U)p.r(C)p.r(U)p.r(G)p.r(G)p.r(A)p.r(A)p.r(G)p.r(G)p.r(A)p.d(A)p.d(T)}$$$RNA1{StrandType:ss}|RNA2{StrandType:as}$”, for which the normalised inhibition (eCFP-eYFP dual reporter) amounted to 36.9%.

Turning to “RNA1{r(U)p.r(G)p.r(A)p.r(A)p.r(A)p.r(G)p.r(A)p.r(U)p.r(A)p.r(A)p.r(G)p.r(U)p.r(G)p.r(G)p.r(U)p.r(C)p.r(C)p.r(C)p.r(C)p.d(T)p.d(T)}|RNA2{r(G)p.r(G)p.r(G)p.r(G)p.r(A)p.r(C)p.r(C)p.r(A)p.r(C)p.r(U)p.r(U)p.r(A)p.r(U)p.r(C)p.r(U)p.r(U)p.r(U)p.r(C)p.r(A)p.d(A)p.d(A)}$$$RNA1{StrandType:ss}|RNA2{StrandType:as}$”, the normalised inhibition (eCFP-eYFP dual reporter) was determined as 34.5%.
